Like-named read-outs stand apart in the source and are kept apart here.
Experiments:
Assay type in all cases: binding
GABARAP = target: T1, GABARAP (Homo sapiens, UniProt O95166); test: Bio-layer interferometry (BLI) affinity of SCOC LIR peptides for GABARAP; settings: BLI, Tris pH 7.5, 25 °C, average ± standard error of fit
T1 construct: fused with a Gly-Ser linker to full-length GABARAP (GST-GABARAP (pAL)); GST (followed by 3C protease cleavage site) (N); made in house
Description: (§1) Bio-layer interferometry (BLI) is an optical analytical technique for measuring kinetics of interactions in real-time. The biosensor tip surface immobilized with a ligand is incubated with an analyte in solution, resulting in an increase in optical thickness at the biosensor tip and a wavelength shift, which is a direct measure of the change in thickness. Bio-layer interferometry analyses of ATG8s binding to immobilized biotinylated LIR peptides were performed using an Octet Red 96 (ForteBio). […] Ligands-loaded SA biosensors were then incubated with different concentrations of ATG8. All binding experiments were performed in solid-black 96-well plates containing 200 μl of solution (25 mM Tris pH 7.5, 150 mM NaCl, 0.5 mM TCEP, 0.1% Tween20, 1 mg/ml BSA) in each well at 25 °C with an agitation speed of 1000 rpm. Each measurement was repeated 2 to 3 times. Dissociation constants for LIR-ATG8 interactions were determined from plotting the increase in BLI response as a function of the protein concentration and fitting using non-linear regression of ForteBio 7.1 data analysis and GraphPad Prism 7 softwares.
(§2) The following peptides were synthesized using FMOC solid phase peptide chemistry by the Francis CRICK Institute peptide chemistry science technology platform: […]

LC3A = target: T2, LC3A (Homo sapiens, UniProt Q9H492); test: Bio-layer interferometry (BLI) affinity of SCOC LIR peptides for LC3A; settings: BLI, Tris pH 7.5, 25 °C, average ± standard error of fit, read-out: Kd LC3A
T2 construct: GST (followed by 3C protease cleavage site) (N); made in house
Description: as §1, §2

GABARAPL1 = target: T3, GABARAPL1 (Homo sapiens, UniProt Q9H0R8); test: Bio-layer interferometry (BLI) affinity of SCOC LIR peptides for GABARAPL1; settings: BLI, Tris pH 7.5, 25 °C, average ± standard error of fit, read-out: Kd GAB-L1
T3 construct: GST-GABARAPL1 full-length (pAL); GST (followed by 3C protease cleavage site) (N); made in house
Description: as §1, §2

LC3C = target: T4, LC3C (Homo sapiens, UniProt Q9BXW4); test: Bio-layer interferometry (BLI) affinity of SCOC LIR peptides for LC3C; settings: BLI, Tris pH 7.5, 25 °C, average ± standard error of fit, read-out: Kd LC3C
T4 construct: GST (followed by 3C protease cleavage site) (N); made in house
Description: as §1, §2

LC3B = target: T5, LC3B (Homo sapiens, UniProt Q9GZQ8); test: Bio-layer interferometry (BLI) affinity of SCOC LIR peptides for LC3B; settings: BLI, wild-type and phosphorylated SCOC LIR peptides; Tris pH 7.5, 25 °C; average ± standard error of fit, n = 2–3; Figure 4B; read-out: Kd LC3B
T5 construct: GST (followed by 3C protease cleavage site) (N); made in house
Description: as §1, §2

GABARAPL2 = target: T6, GABARAPL2 (Homo sapiens, UniProt P60520); test: Bio-layer interferometry (BLI) affinity of SCOC LIR peptides for GABARAPL2; settings: BLI, wild-type and phosphorylated SCOC LIR peptides; Tris pH 7.5, 25 °C; average ± standard error of fit, n = 2–3; Figure 4B; read-out: Kd GAB-L2
T6 construct: GST (followed by 3C protease cleavage site) (N); made in house
Description: as §1, §2

[1] = wild-type, truncated and phosphorylated SCOC LIR peptides, n = 2, Figure 6A
[2] = wild-type, truncated and phosphorylated SCOC LIR peptides, n = 2, Figure 6A, read-out: Kd GAB
[3] = wild-type and phosphorylated SCOC LIR peptides, n = 2–3, Figure 4B

T1 sequence (O95166 whole entry, the tested form may be a part): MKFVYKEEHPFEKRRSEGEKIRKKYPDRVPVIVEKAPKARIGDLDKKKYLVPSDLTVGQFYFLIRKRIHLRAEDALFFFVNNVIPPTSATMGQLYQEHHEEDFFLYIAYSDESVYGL
T3 sequence (Q9H0R8 whole entry): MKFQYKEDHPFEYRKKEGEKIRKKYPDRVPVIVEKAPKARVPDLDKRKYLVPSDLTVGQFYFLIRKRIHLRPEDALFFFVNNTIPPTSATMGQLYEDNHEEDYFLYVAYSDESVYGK
T4 sequence (Q9BXW4 whole entry): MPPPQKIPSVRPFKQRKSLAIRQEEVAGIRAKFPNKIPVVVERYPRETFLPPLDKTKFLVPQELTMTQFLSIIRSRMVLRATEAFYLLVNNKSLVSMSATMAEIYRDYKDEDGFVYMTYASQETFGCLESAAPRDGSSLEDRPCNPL
T6 sequence (P60520 whole entry): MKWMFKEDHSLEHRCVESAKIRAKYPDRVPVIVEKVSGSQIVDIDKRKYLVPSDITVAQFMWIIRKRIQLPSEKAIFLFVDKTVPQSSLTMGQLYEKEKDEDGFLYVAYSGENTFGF

Row | SMILES | Kd (LC3A; [1]) | Kd (GABARAPL1; [1]) | Kd (LC3C; [1]) | Kd (GABARAP; [2]) | other results
1 | CC[C@H](C)[C@H](NC(=O)[C@H](CC(=O)O)NC(=O)[C@H](CC(=O)O)NC(=O)[C@H](C)NC(=O)[C@H](CC(C)C)NC(=O)[C@H](CO)NC(=O)[C@@H](NC(=O)[C@H](CC(N)=O)NC(=O)[C@@H](NC(=O)[C@H](Cc1ccccc1)NC(=O)[C@@H](NC(=O)[C@H](CO)NC(=O)[C@H](CC(=O)O)NC(=O)[C@H](CCC(=O)O)NC(=O)[C@H](CCC(=O)O)NC(=O)[C@H](CCC(=O)O)NC(=O)[C@H](CCC(=O)O)NC(=O)[C@@H](N)CCCCN)[C@@H](C)O)[C@@H](C)O)[C@@H](C)CC)C(=O)N[C@@H](CC(=O)O)C(=O)N[C@@H](Cc1c[nH]cn1)C(N)=O [SCOC WT] |  |  |  |  | Kd (GABARAP; biotinylated LIR peptide on streptavidin biosensor, n = 2, Figure 1E, Suppl. Figure 2A, read-out: Kd GABARAP): 3.6 µM
2 | CC[C@H](C)[C@H](NC(=O)[C@H](CC(N)=O)NC(=O)[C@@H](NC(=O)[C@H](Cc1ccccc1)NC(=O)[C@@H](NC(=O)[C@H](CO)NC(=O)[C@H](CC(=O)O)NC(=O)[C@H](CCC(=O)O)NC(=O)[C@H](CCC(=O)O)NC(=O)[C@H](CCC(=O)O)NC(=O)[C@H](CCC(=O)O)NC(=O)[C@@H](N)CCCCN)[C@@H](C)O)[C@@H](C)O)C(=O)N[C@@H](COP(=O)(O)O)C(=O)N[C@@H](CC(C)C)C(=O)N[C@@H](C)C(N)=O [SCOC aa 6-20/pS18] | 33.3 ± 4.8 µM | 3.8 ± 0.3 µM | 5 ± 0.5 µM | 7.5 ± 0.8 µM | 
3 | CC[C@H](C)[C@H](NC(=O)[C@H](CC(N)=O)NC(=O)[C@@H](NC(=O)[C@H](Cc1ccccc1)NC(=O)[C@@H](NC(=O)[C@H](CO)NC(=O)[C@H](CC(=O)O)NC(=O)[C@H](CCC(=O)O)NC(=O)[C@H](CCC(=O)O)NC(=O)[C@H](CCC(=O)O)NC(=O)[C@H](CCC(=O)O)NC(=O)[C@@H](N)CCCCN)[C@@H](C)O)[C@@H](C)O)C(=O)N[C@@H](CO)C(=O)N[C@@H](CC(C)C)C(=O)N[C@@H](C)C(N)=O [SCOC aa 6-20] | 209 ± 25 µM | 6.8 ± 0.6 µM | 21.3 ± 2.4 µM | 8.5 ± 0.7 µM | 
4 | CC[C@H](C)[C@H](NC(=O)[C@H](CC(=O)O)NC(=O)[C@H](CC(=O)O)NC(=O)[C@H](C)NC(=O)[C@H](CC(C)C)NC(=O)[C@H](COP(=O)(O)O)NC(=O)[C@@H](NC(=O)[C@H](CC(N)=O)NC(=O)[C@@H](NC(=O)[C@H](Cc1ccccc1)NC(=O)[C@@H](NC(=O)[C@H](COP(=O)(O)O)NC(=O)[C@H](CC(=O)O)NC(=O)[C@H](CCC(=O)O)NC(=O)[C@H](CCC(=O)O)NC(=O)[C@H](CCC(=O)O)NC(=O)[C@H](CCC(=O)O)NC(=O)[C@@H](N)CCCCN)[C@@H](C)O)[C@@H](C)O)[C@@H](C)CC)C(=O)N[C@@H](CC(=O)O)C(=O)N[C@@H](Cc1c[nH]cn1)C(N)=O [pS12, pS18] |  |  |  |  | Kd (LC3A; [3]): 1.6 ± 0.2 µM; Kd (LC3B): 7.8 ± 0.9 µM; Kd (GABARAPL2): 10.4 ± 0.5 µM; Kd (GABARAPL1; [3]): 0.4 ± 0.03 µM; Kd (LC3C; [3]): 0.4 ± 0.04 µM; Kd (GABARAP; wild-type and phosphorylated SCOC LIR peptides, n = 2–3, Figure 4B, read-out: Kd GAB): 1 ± 0.1 µM

From publication PMC8202330, “Phosphorylation of the LIR Domain of SCOC Modulates ATG8 Binding Affinity and Specificity” (Journal of Molecular Biology, 2021)
